Patent publication US12673039B2, “Methods of inducing autophagy using coumarin derivatives and related compounds” (Buck Institute for Research on Aging, priority 2019, dated 2026)

Columns and labels:
[1] = tested on: SH-SY5Y cells; experiment: Immunoblot of TFEB, cathepsin-D and SHP-1 in SH-SY5Y cells; type: cell-based, human; conditions: 24 hours
Procedure: FIG. 23, panels A-H: FXR modulation enhances HLH-30 expression in human neuronal SH-SY5Y cells. Panel A) Effects of AIC106 on human FXR activity was determined in a mammalian one-hybrid based kit assay by quantifying changes in the luciferase activity of FXR ligand (GW4064, GW) induced treatment. [N=3 independent experiments (mean±SD). ****p<0.0001, by one-way ANOVA with Tukey's multiple comparisons test]. Panel B) Protein expression of TFEB, cathepsin-D (CAT-D) and small heterodimer partner-1 (SHP-1) was determined by immunoblot in neuronal SH-SY5Y cells post-24 hours of treatment with AIC106 and DMSO-control. Panel C) AIC106 enhances autophagic flux in neuronal SH-SY5Y cells. Autophagic flux in DMSO-control and AIC106 treated neuronal cells was determined by quantifying levels of autophagosome specific LC3-II protein both in presence and absence of autophagy inhibitor bafliomycin A1 (Baf A, 10 nM). Panel D) Relative fold change in the band intensity of LC3-II protein, normalized to loading control actin. Values are relative to DMSO-control. [N=3 independent experiments (mean±SD). *p<0.05 and ****p<0.0001, by one-way ANOVA with Tukey's multiple comparisons test]. Panel E) Effects of AIC106 treatment for 72 hours on basal TAU and phosphorylated-TAU in differentiated human neuronal SH-SHY5Y and heterozygous TSC1(+/−) mutant SH-SY5Y neuronal cells were quantitated by immunoblotting following total protein extraction. Relative fold change in the band intensity compared to SH-SY5Y control treatment for (panel F) total TAU and (panel G) phosphorylated-TAU, normalized to loading control GAPDH. [N=3 independent experiments (mean±SD). *p<0.05 and **p<0.01, by one-way ANOVA with Sidak's multiple comparisons test]. Panel H) AIC106 treatment improves viability and health of differentiated SH-SY5Y-TSC1(+/−) neuronal cells. Images were taken post-96 hours after treatment of differentiated neuronal cells with AIC106.
(§1) FIG. 30, panels A-B: FXR modulation enhances HLH-30 expression in human neuronal SH-SY5Y cell. Panel A) TFEB expression in SH-SY5Y cells was determined by immunoblot against TFEB in protein lysates collected after 24 hours of treatment with FXR agonist GW4064 and DMSO control. Panel B) Phosphorylated-TAU levels in SH-SY5Y-P301L-TAU cells was determined by immunoblot against (Ser202, Thr205) in protein lysates collected after 24 hours of treatment with known FXR antagonist Z-gugglsterone (z-GG), DY268 and DMSO control.

[2] = tested on: SH-SY5Y-P301L-TAU cells; experiment: Phosphorylated-TAU immunoblot in SH-SY5Y-P301L-TAU cells; type: cell-based, human; conditions: SH-SY5Y cells expressing mutant P301L-TAU, 24 hours
Procedure: as §1

Structure (SMILES) | TFEB protein expression [1] | phosphorylated-TAU expression [2]
CC(C)c1onc(-c2c(Cl)cccc2Cl)c1COc1ccc(/C=C/c2cccc(C(=O)O)c2)c(Cl)c1 [GW4064, reference compound] | reduced TFEB expression | 
COc1cccc(Cn2cc(C(=O)Nc3ccc(C)c(S(=O)(=O)N4CCOCC4)c3)c(-c3ccc(C)cc3)n2)c1 [DY268] |  | reduced expression of phosphorylated-TAU
C/C=C1\C(=O)C[C@H]2[C@@H]3CCC4=CC(=O)CC[C@]4(C)[C@H]3CC[C@]12C [Z-guggulsterone] |  | reduced expression of phosphorylated-TAU
